# Data published in patent US20170348269A1, “TREATMENT OF UREA CYCLE DISORDERS IN NEONATES AND INFANTS” (Horizon Therapeutics, LLC, priority 2016, published 2017).
# Where “and” joins values, the source holds several entries; their conditions need not be identical. Equal entries are not always repeated.
# What was measured:
# [1] = HPN-100-005 pharmacokinetics of HPN-100 and NaPBA in pediatric UCD patients; type: in vivo, human; conditions: HPN-100-005 (N = 11)
# Text: (§1) The pharmacokinetics of the short term studies can be summarized as follows. Mean exposure levels of HPN-100 metabolites PBA, PAA, and PAGN after doses of HPN-100 and NaPBA with meals (TID) in pediatric (29 days to 17 years of age) UCD patients in HPN-100-005 and HPN-100-012 studies are summarized below. The mean exposure to PBA, the parent metabolite, and mean exposure to PAGN, the terminal metabolite, show no systematic variation across age groups, while PAA exposure tended to decrease with increasing age, a finding consistent with those from population PK modeling which indicate that the rate of clearance/metabolism of PAA varies directly with body size. While systemic metabolite exposure, assessed as peak plasma concentration (Cmax) or AUC, is generally similar for HPN-100 and NaPBA, the minimum concentration (Cmin-ss) was higher—and/or percent-fluctuation less—for plasma PAGN, a finding consistent with slower gastrointestinal absorption of PBA when administered orally as HPN-100.
# [2] = HPN-100-012 switch-over study, pharmacokinetics of HPN-100 and NaPBA in pediatric UCD patients; type: in vivo, human; conditions: HPN-100-012 (N = 15), TID with meals
# Procedure: HPN-100-012, an open-label, fixed sequence, switch-over study of the safety, PK and efficacy of HPN-100 compared to NaPBA in patients with UCDs, with a 12-month safety extension part. The switch-over part of the study and the 12-month safety extension are complete. The switch-over part was conducted at 7 U.S. centers and enrolled 15 pediatric UCD patients between 29 days and <6 year of age, all of whom completed the study. After review of all the safety data by the DSMB, 8 additional subjects were enrolled in the study after the switch-over phase was completed. The primary efficacy endpoint was the 24-hour AUC (area under the curve) for blood ammonia on Day 1 compared with Day 10.
# as §1
# [3] = tested on: venous ammonia in pediatric patients with UCDs; test: Study 6, uncontrolled open-label study in children under 2 years of age; type: in vivo, human
# Procedure: Uncontrolled, open-label studies were conducted to assess monthly ammonia control and hyperammonemic crisis of RAVICTI® in pediatric patients with UCDs 2 months to less than 2 years of age (Study 4/4E, Study 5, and Study 6). Patients in Study 5 previously participated in Study 4/4E. A total of 17 pediatric patients with UCDs aged 2 months to less than 2 years participated in the studies.
# A total of 10 pediatric patients with UCDs aged 2 months to less than 2 years participated in Study 6, of which 7 patients converted from sodium phenylbutyrate to RAVICTI®. The dosage of RAVICTI® was calculated to deliver the same amount of PBA as the sodium phenylbutyrate dosage the patients were taking when they entered the trial. Two patients were treatment naïve and received RAVICTI® dosage of 7.5 mL/m^2/day and 9.4 mL/m^2/day, respectively. One additional patient was gradually discontinued from intravenous sodium benzoate and sodium phenylacetate while RAVICTI® was initiated. The dosage of RAVICTI® after transition was 8.5 mL/m^2/day.
# In Study 6, there were 9, 7 and 3 pediatric patients who completed 1, 3 and 6 months, respectively (mean and median exposure of 4 and 5 months, respectively).
# Patients received a mean RAVICTI® dose of 8 mL/m^2/day (8.8 g/m^2/day), with doses ranging from 4.8 to 11.5 mL/m^2/day (5.3 to 12.6 g/m^2/day). Patients were dosed three times a day (n=6), four times a day (n=2), or five or more times a day (n=2).
# The primary efficacy endpoint was successful transition to RAVICTI® within a period of 4 days followed by 3 days of observation for a total of 7 days, where successful transition was defined as no signs and symptoms of hyperammonemia and a venous ammonia value less than 100 micromol/L. Venous ammonia levels were monitored for up to 4 days during transition and on day 7. Nine patients successfully transitioned as defined by the primary endpoint. One additional patient developed hyperammonemia on day 3 of dosing and experienced surgical complications (bowel perforation and peritonitis) following jejunal tube placement on day 4. This patient developed hyperammonemic crisis on day 6, and subsequently died of sepsis from peritonitis unrelated to drug. Although two patients had day 7 ammonia values of 150 micromol/L and 111 micromol/L respectively, neither had associated signs and symptoms of hyperammonemia.
# During the extension phase, venous ammonia levels were monitored monthly. Ammonia values across different laboratories were normalized (transformed) to a common normal pediatric range of 28 to 57 micromol/L for comparability. The mean normalized venous ammonia values in pediatric patients at month 1, 2, 3, 4, 5 and 6 were 67, 53, 78, 99, 56 and 61 micromol/L during treatment with RAVICTI®, respectively. Three patients reported a total of 7 hyperammonemic crises defined as having signs and symptoms consistent with hyperammonemia (such as frequent vomiting, nausea, headache, lethargy, irritability, combativeness, and/or somnolence) associated with high venous ammonia levels and requiring medical intervention. Hyperammonemic crises were precipitated by vomiting, upper respiratory tract infection, gastroenteritis, decreased caloric intake or had no identified precipitating event (3 events). There were three additional patients who had one venous ammonia level that exceeded 100 micromol/L which was not associated with a hyperammonemic crisis.
# [4] = tested on: pancreatic lipase-related protein; conditions: cited from earlier work
# [5] = pediatric UCD patients, TID with meals, arithmetic mean
# [6] = Study 6 extension phase, normalized to 28 to 57 micromol/L
smiles,measurement,setting,value
"O=C(CCCc1ccccc1)OCC(COC(=O)CCCc1ccccc1)OC(=O)CCCc1ccccc1 [HPN-100, benzenebutanoic acid, 1′,1″-(1,2,3-propanetriyl) ester]",Plasma PAA CLss/F,[1]; [5],15082 mL/min
same,Plasma PBA CLss/F,[1]; [5],20545 mL/min
same,Plasma PAGN CLss/F,"[1]; pediatric UCD patients, TID with meals, arithmetic mean (CV %)",14237 mL/min
same,U-PAGN Ae0-12,"[1]; urinary PAGN excreted 0-12 h, arithmetic mean",5611719 µg
same,U-PAGN Ae12-24,"[1]; urinary PAGN excreted 12-24 h, arithmetic mean",6889318 µg
same,U-PAGN Ae,"[1]; urinary PAGN excreted, arithmetic mean",12501037 µg
same,Plasma PAA % Fluctuation,[2]; arithmetic mean,2141%
same,Plasma PAA AUC0-24,[2]; arithmetic mean,1096 µg·h/mL
same,Plasma PAA CLss/F,[2]; arithmetic mean,25538 mL/min
same,Plasma PAGN CLss/F,[2]; arithmetic mean,10830 mL/min
same,Plasma PBA CLss/F,[2]; arithmetic mean,22610 mL/min
same,Plasma PBA Cmin-ss,[2]; arithmetic mean,750 ng/mL
same,Plasma PAA Cmax-ss,[2]; arithmetic mean (CV %),84700 ng/mL
same,Plasma PAA Cmin-ss,[2]; arithmetic mean (CV %),26100 ng/mL
same,Plasma PAGN Cmin-ss,[2]; arithmetic mean (CV %),19900 ng/mL
same,additional patients with one venous ammonia level exceeding 100 micromol/L not associated with a hyperammonemic crisis,[3]; Study 6,three
same,patients successfully transitioned (no signs and symptoms of hyperammonemia and venous ammonia less than 100 micromol/L),"[3]; Study 6, 10 patients 2 months to <2 years, 7 days",Nine
same,day 7 ammonia values of two individual patients,"[3]; Study 6, no associated signs and symptoms of hyperammonemia, listed as RAVICTI®",150 µmol/L and 111 µmol/L
same,total hyperammonemic crises,"[3]; Study 6, reported by three patients",7
same,"mean normalized venous ammonia, month 1",[3]; [6],67 µmol/L
same,"mean normalized venous ammonia, month 2",[3]; [6],53 µmol/L
same,"mean normalized venous ammonia, month 3",[3]; [6],78 µmol/L
same,"mean normalized venous ammonia, month 4",[3]; [6],99 µmol/L
same,"mean normalized venous ammonia, month 5",[3]; [6],56 µmol/L
same,"mean normalized venous ammonia, month 6",[3]; [6],61 µmol/L
same,hydrolysis in vitro by pancreatic lipase-related protein,[4],hydrolyze
